Measured values published in patent publication US9120819B2, “FGF-receptor agonist dimeric compounds” (SANOFI, priority 2006, dated 2015).

Columns and labels:
[1] = system: human vein endothelial cells (HUVECs); assay: In vitro angiogenesis model (HUVEC rearrangement on matrigel, pseudotubule length); format: cell-based; settings: at a concentration of 10 nM, 24 hours
Description: In vitro Angiogenesis Model
The products are tested in terms of inducing the rearrangement of human vein endothelial cells (HUVECs) on matrigel (Becton dickinson 356230) diluted in collagen (rat tail collagen, type I: Becton dickinson 354236). After 24 hours, the cells are observed under the microscope with a X4 objective and the length of the pseudotubules is measured by means of an image analyser (BIOCOM-Visiolab 2000 software).

C57 mice = assay: Model of post-ischaemic leg revascularization in mice; format: in vivo; settings: 30 mg/kg/day administered subcutaneously for 7 days
Description: Model of Post-Ischaemic Leg Revascularization in Mice
The experiment is carried out on C57 mice (IFFA CREDO France).
The animals are anaesthetized by intraperitonal injection, in a volume of 10 ml/kg, of a solution of 50 mg/kg ketamine (Ketamine 1000 Virbac®, Virbac Carros France) and 10 mg/kg xylazine (Rompun 2%®, Bayer Pharma Puteaux France). The animal is placed so that it is lying on its back, and after shaving and disinfection of the skin by painting with Vetedine® solution (Vetoquinol S.A. Lure France), an incision is made in the inguinal region. The femoral artery is excized, the collateral arteries are cauterized and the external and circumflex iliac arteries are ligatured. The skin is sutured with separate stitches using non-resorbable thread. The animals are placed in the recovery room, the temperature of which is regulated at 25° C., until they are completely awake.
The distal perfusion is measured using a laser Doppler scanner (LDPI Lisca Perimed model PIM II, AB Sweden). This technique makes it possible to measure the cutaneous perfusion of the upper part of the back legs. […] Measurements are carried out successively on the healthy leg and on the leg rendered ischaemic in order to establish a perfusion deficit expressed as %. […]

FGF-R1β-hMp1 = assay: Baf/3-FGFR1β proliferation model; format: cell-based, murine; settings: at a concentration of 30 μM
Description: (§1) Baf/3-FGFR1β or FGF-R4α Proliferation Model
(§2) Obtaining the Chimeric Receptor Constructs
(§3) The chimeric receptors are made up of the intracellular portion of hMp1 (NM_005373) and the transmembrane and extracellular domains of FGF-R1β or FGF-R4α.
(§4) For each FGF receptor, the FGF-R (BamHI-SacI) and hMp1 (SacI-NotI) fragments are simultaneously cloned into the vector pEF6 (Invitrogen) digested with BamHI and NotI.
(§5) Murine BaF/3 cells are transfected by electroporation. 20 μg of plasmid carrying the constructs FGF-R1β-hMp1 or FGF-R4α-hMp1 are mixed with 5×10^6 cells taken up in 800 μl of RPMI (invitrogen). The mixture is subjected to two electric shocks of 400 V with an interval of 0.1 ms. The cells are taken up for 48 h in an RPMI medium containing 10% FCS (foetal calf serum, gibco), glutamine (invitrogen), NEAA (nonessential amino acids, invitrogen), NaPyr (sodium pyruvate, invitrogen) and 10 ng/ml of IL-3, before being selected with 10 μg/ml of blasticidin (Cayla).
(§6) Culture of Transfected Cells […]
(§7) A confluent culture of BaF/3 cells carrying the chimeric receptors is passaged one-in-three in culture medium supplemented with IL-3 (10 ng/ml) for 24 h. […] The plates are incubated for 28 h at 37° C. and then 100 μl of Cell Titer Glo (Promega) are added and the amount of ATP is quantified using a luminometer (Luminoskan Ascent, Labsystems).

FGF-R4α-hMp1 = assay: Baf/3-FGF-R4α proliferation model; format: cell-based, murine; settings: at a concentration of 30 μM
Description: as §1, §2, §3, §4, §5, §6, §7

**Q.** How did the “activity on the in vitro angiogenesis model” value [1] turn out when `COc1c(C)c(C(=O)c2ccc(N)c(C(=O)[O-])c2)n2cccc(OCCOCCOCCOCCOCCOCCOc3cccn4c(C(=O)c5ccc(N)c(C(=O)[O-])c5)c(C)c(OC)c34)c12.[Na+].[Na+]` [Example 2, disodium salt of 3,3′-{3,6,9,12,15-pentaoxaheptadecane-1,17-diylbis[oxy(1-methoxy-2-methylindolizine-8,3-diyl)carbonyl]}bis(6-aminobenzoic acid)] was run?
**A.** active

**Q.** For `COc1cc(C(=O)c2nc(-c3cccc(C(=O)[O-])c3)c3c(OCCOCCOCCOCCOCCOCCOc4cccn5c(C(=O)c6ccc(N)c(OC)c6)nc(-c6cccc(C(=O)[O-])c6)c45)cccn23)ccc1N.[Na+].[Na+]` [Example 8, Disodium salt of 3,3′-(3,6,9,12,15-pentaoxaheptadecane-1,17-diylbis{oxy[3-(4-amino-3-methoxybenzoyl)imidazo[1,5-a]pyridine-8,1-diyl]})dibenzoic acid], which “activity on the in vitro angiogenesis model” value [1] is on record?
**A.** active

**Q.** How did the “activity in the ischaemic leg model (post-ischaemic perfusion recovery)” value (C57 mice) turn out when `Cc1c(OCCOCCOCCOCCOCCOCCOCCOc2c(C)c(C(=O)c3ccc(N)c(C(=O)[O-])c3)n3ccccc23)c2ccccn2c1C(=O)c1ccc(N)c(C(=O)[O-])c1.[Na+].[Na+]` [Example 21, Disodium salt of 3,3′-{3,6,9,12,15,18-hexaoxaicosane-1,20-diylbis[oxy(2-methylindolizine-1,3-diyl)carbonyl]}bis(6-aminobenzoic acid)] was run?
**A.** significant activity

**Q.** How did the “activity on the Baf/3-FGFR1β proliferation” value (FGF-R1β-hMp1) turn out when `Cc1c(NC(=O)c2cccc(OCC(=O)NCCNC(=O)COc3cccc(C(=O)Nc4c(C)c(C(=O)c5ccc(N)c(C(=O)[O-])c5)n5ccccc45)c3)c2)c2ccccn2c1C(=O)c1ccc(N)c(C(=O)[O-])c1.[Na+].[Na+]` [Example 44] was run?
**A.** active

**Q.** What about the “activity on the Baf/3-FGF-R4α proliferation” value (FGF-R4α-hMp1) of the same molecule?
**A.** active
